What all share (format): cell-based
Assay [1] concerns H. pylori clinical isolate 98/285. Nature of the assay: MIC agar dilution, H. pylori 98/285. The note with it: Helicobacter pylori, MtzR clinical isolate. As to the method:
(§1) All compounds were tested for activity against a set of anaerobic C. difficile bacteria (630 ATCC BAA-1382, NAP1/027 M7404, NAP1/027 ATCC BAA-1803, VPI10463 ATCC 43255, CD26A54_S and CD26A54_R) and representative ESKAPE pathogens S. aureus (MRSA ATCC 43300), E. coli (ATCC 25922), K. pneumoniae (ATCC 700603), A. baumannii (ATCC 19606) and P. aeruginosa (ATCC 27853) using a standard broth microdilution assay. Selected compounds were tested for activity against H. pylori strains (26695, and clinical isolates MtzS 13/25, MtzR 98/285 and MtzR 13/61) using agar plate dilution, and for antimicrobial activity against […] Gram-positive bacterial strains: Enterococcus faecalis (VanA clinical isolate), Enterococcus faecium (MDR VanA ATCC 51559), Streptococcus pneumoniae (MDR ATCC 700677), S. aureus (MRSA ATCC 43300, MRSA clinical isolate, MRSA/DRSA clinical isolate, GISA NARSA NRS 1, GISA NARSA NRS 17, VRSA NARSA VRS1, VRSA NARSA VRS4 and VRSA NARSA VRS10) using broth microdilution. C. difficile strains were grown at 37 °C in a COY anaerobic chamber (5% H2, 10% CO2, 85% N2). H. pylori strains were grown at 37 °C under a microaerobic atmosphere (5% O2, 10% CO2). All facultative anaerobic bacteria were grown at 37 °C with normal atmospheric oxygen levels. All experiments were performed in duplicate with metronidazole, vancomycin, linezolid or colistin as positive controls for relevant strains (see Table 1). Positive growth control of bacteria and DMSO as well as a negative control of only media were included for every plate. Full assay details are provided in the supplementary information.
Helicobacter pylori strains, with a range of resistance levels to metronidazole (256 µg/ml, 64 µg/ml, 24 µg/ml, 2 µg/ml, and 0.04 µg/ml), were selected and obtained from Helicobacter Research Laboratory, University of Western Australia. The resistance strength to metronidazole was recorded according to eTest (bioMérieux). H. pylori strain 26695 was used as the control. H. pylori was maintained on the non-selective Columbia blood agar plates (CBA) (Columbia agar base Oxoid) with 5% horse blood and incubated at 37 °C and 10% CO2 for 48 hrs. […] Each of the H. pylori strains were harvested, OD600 calibrated to 0.3, and spotted in triplicate on CBA pre-mixed with the compound. The lowest concentration of antibiotic showing no growth was read as the MIC. The experiment was performed in duplicate.
For orientation: In agar dilution, organisms are placed on agar that contains the substance at set levels.

Assay [2] has as its system ESKAPE bacteria: S. aureus MRSA (ATCC 43300), E. coli (ATCC 25922), K. pneumoniae (ATCC 700603), A. baumannii (ATCC 19606) and P. aeruginosa (ATCC 27853). Nature of the assay: MIC against ESKAPE pathogens, aerobic. To be noted: aerobic conditions, single concentration screen, n = 3. On the procedure: as §1, with “All experiments were performed in duplicate with metronidazole, vancomycin, linezolid or colistin as positive controls for relevant strains (see Table 1).” left out
MICs were determined by a two-fold serial broth micro dilution according to the recommendation of CLSI standards with an inoculum of 5 × 10^5 CFU/mL^4 The compounds along with standard antibiotics were serially diluted twofold across the wells of 96-well non-binding surface plates (NBS, Corning). […] Gram-positive and Gram-negative bacteria were cultured in Mueller Hinton broth (MHB) (Bacto laboratories, Cat. no. 211443) at 37 °C overnight. A sample of each culture was then diluted 40-fold in fresh MHB broth and incubated at 37 °C for 2-3 h. The resultant mid-log phase cultures were diluted to the final concentration of 5 × 10^5 CFU/mL, then 50 μL was added to each well of the compound containing 96-well plates. All the plates were covered and incubated at 37 °C for 24 h.

Assay [3] is described as follows: MIC broth microdilution, drug resistant Gram-positive panel. The note with it: all strains of the panel; read-out: MIC against panel of drug resistant Gram-positive strains. On the procedure:
as §1
MICs were determined by a two-fold serial broth micro dilution according to the recommendation of CLSI standards with an inoculum of 5 × 10^5 CFU/mL^4 The compounds along with standard antibiotics were serially diluted twofold across the wells of 96-well non-binding surface plates (NBS, Corning). Standards ranged from 64 to 0.03 μg/mL, and the compounds from 128 to 0.06 μg/mL with final volumes of 50 μL per well. Gram-positive and Gram-negative bacteria were cultured in Mueller Hinton broth (MHB) (Bacto laboratories, Cat. no. 211443) at 37 °C overnight. A sample of each culture was then diluted 40-fold in fresh MHB broth and incubated at 37 °C for 2-3 h. The resultant mid-log phase cultures were diluted to the final concentration of 5 × 10^5 CFU/mL, then 50 μL was added to each well of the compound containing 96-well plates. All the plates were covered and incubated at 37 °C for 24 h.

≈ marks a conversion by molar mass, not a printed value.

As usually defined, the MIC is the least concentration at which growth counts as inhibited. With `Cc1ncc([N+](=O)[O-])n1CCO` [Compound 1, metronidazole], the MIC was 64 µg/mL (≈ 374 µM) in assay [1] and more than 64 µg/mL in assay [3]. In addition, in assay [2], the “MIC ESKAPE bacteria” value was more than 32 µg/mL.
Take `Cc1ncc([N+](=O)[O-])n1CCN=[N+]=[N-]` [Compound 3, 1-(2-azidoethyl)-2-methyl-5-nitro-1H-imidazole]: the “MIC ESKAPE bacteria” value in assay [2] was more than 32 µg/mL.
In the case of `Cc1ncc([N+](=O)[O-])n1CCn1cc(-c2ccccc2)nn1` [Compound 4a, 1-(2-(2-methyl-5-nitro-1H-imidazol-1-yl)ethyl)-4-phenyl-1H-1,2,3-triazole], the MIC in assay [3] was more than 64 µg/mL.
Take `Cc1ncc([N+](=O)[O-])n1CCn1cc(Cn2cccn2)nn1` [Compound 4g, 1-(2-(2-methyl-5-nitro-1H-imidazol-1-yl)ethyl)-4-((1H-pyrazol-1-yl)methyl)-1H-1,2,3-triazole]: the MIC in assay [1] lay within 16 to 32 µg/mL (≈ 52.9 to 106 µM).
Compound `Cc1ncc([N+](=O)[O-])n1CCn1cc(-c2ccccn2)nn1` [Compound 4h, 1-(2-(2-methyl-5-nitro-1H-imidazol-1-yl)ethyl)-4-(2-pyridinyl)-1H-1,2,3-triazole.xTFA] returned an MIC in assay [1] of 32 µg/mL.
Regarding `Cc1ncc([N+](=O)[O-])n1CCn1cc(CO)nn1` [Compound 4q, 1-(2-(2-methyl-5-nitro-1H-imidazol-1-yl)ethyl)-4-(hydroxymethyl)-1H-1,2,3-triazole], the MIC in assay [3] was more than 64 µg/mL.
In the case of `Cc1ncc([N+](=O)[O-])n1CCn1cc(C(=O)O)nn1` [Compound 4s, 1-(2-(2-methyl-5-nitro-1H-imidazol-1-yl)ethyl)-4-(carboxy)-1H-1,2,3-triazole], in assay [1], the MIC is more than 64 µg/mL.

The values above are taken from publication PMC4550478, “Metronidazole-triazole conjugates: Activity against Clostridium difficile and parasites” (European Journal of Medicinal Chemistry, 2015).
